Data from patent publication US11957783B2, “Topical immunosensitizers to treat viral and fungal infections” (Squarex, LLC, priority 2018, dated 2024).

Tested on: herpes labialis outbreak
Test: Clinical trial of herpes labialis outbreaks after sensitization dose (Example 2)
Format: in vivo, human
Method: The median time to the next outbreak for the placebo group was 40 days vs more than 122 days for the 2.0% SADBE group, which difference was highly significant (P=0.009) (Palli 2017). SADBE is a topical immunosensitizer that induces a delayed-type hypersensitivity response and is commonly used in the treatment of verruca vulgaris and alopecia areata (Lee 1999; Silverberg 2000, Rokhshar 1998). […]
(p<0.05). The average days to the first outbreak after the sensitization dose was also measured. […] The A: placebo, 0% SADBE in DMSO.

CCCCOc1c(OCCCC)c(=O)c1=O [SADBE, 3,4-Dibutoxy-3-cyclobutene-1,2-dione]
proportion who had a first outbreak between 30 and 120 days after receiving the sensitization dose (pooled groups B and C (2% SADBE in DMSO sensitization), placebo group A 4 of 14): 5 of 26
median time to the next outbreak, outbreaks in the 21 days after the sensitization dose excluded (treatment group, counting from day of sensitization dose, placebo 56 days): greater than 120 days
median time to the next outbreak (treatment group, from sensitization dose (2% SADBE), placebo 42 days, log rank P 0.009): greater than 120 days
median time to the next outbreak, counting from day 21 after the sensitization dose (treatment group, placebo 35 days): greater than 99 days
subsequent outbreak during the study time (treatment groups B and C receiving 2% SADBE in DMSO as sensitization dose): usually did not have a subsequent outbreak during the study time
median time to next HSV outbreak in treated patients without visible erythema at application site (versus placebo): longer median time to the next HSV outbreak than patients receiving placebo
